According to ChEMBL document CHEMBL1201862, “PubChem BioAssay data set” (2004):
Active and inactive are the calls of the source.

Key:
Major prion protein = Major prion protein (Homo sapiens, UniProt P04156); assay type: functional, cell-based
[1] = NIH-3T3 fibroblast cytotoxicity, dose response, cytotoxicity control, cell-based, fluorescence, Alamar Blue, secondary assay (AID 2327); assay type: functional;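 further: NIH-3T3 mouse fibroblasts cultured with fluconazole at 8 µg/mL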
[2] = HGIII-sPLA2 enzyme inhibition potency – biochemical, QFRET, IC50, dose response (AID 743457);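 further: green fluorescence rise as the enzyme cleaves BODIPY PC-A2 in liposomes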
[3] = target: T1, Short transient receptor potential channel 4 (Mus musculus, UniProt Q9QUQ5); assay: calcium entry via TRPC4 opening agents – cell-based, HEK293 TRPC4/mu-opioid, Fluo-4 calcium, dose response (AID 434937); assay type: functional
T1 sequence (Q9QUQ5 whole entry): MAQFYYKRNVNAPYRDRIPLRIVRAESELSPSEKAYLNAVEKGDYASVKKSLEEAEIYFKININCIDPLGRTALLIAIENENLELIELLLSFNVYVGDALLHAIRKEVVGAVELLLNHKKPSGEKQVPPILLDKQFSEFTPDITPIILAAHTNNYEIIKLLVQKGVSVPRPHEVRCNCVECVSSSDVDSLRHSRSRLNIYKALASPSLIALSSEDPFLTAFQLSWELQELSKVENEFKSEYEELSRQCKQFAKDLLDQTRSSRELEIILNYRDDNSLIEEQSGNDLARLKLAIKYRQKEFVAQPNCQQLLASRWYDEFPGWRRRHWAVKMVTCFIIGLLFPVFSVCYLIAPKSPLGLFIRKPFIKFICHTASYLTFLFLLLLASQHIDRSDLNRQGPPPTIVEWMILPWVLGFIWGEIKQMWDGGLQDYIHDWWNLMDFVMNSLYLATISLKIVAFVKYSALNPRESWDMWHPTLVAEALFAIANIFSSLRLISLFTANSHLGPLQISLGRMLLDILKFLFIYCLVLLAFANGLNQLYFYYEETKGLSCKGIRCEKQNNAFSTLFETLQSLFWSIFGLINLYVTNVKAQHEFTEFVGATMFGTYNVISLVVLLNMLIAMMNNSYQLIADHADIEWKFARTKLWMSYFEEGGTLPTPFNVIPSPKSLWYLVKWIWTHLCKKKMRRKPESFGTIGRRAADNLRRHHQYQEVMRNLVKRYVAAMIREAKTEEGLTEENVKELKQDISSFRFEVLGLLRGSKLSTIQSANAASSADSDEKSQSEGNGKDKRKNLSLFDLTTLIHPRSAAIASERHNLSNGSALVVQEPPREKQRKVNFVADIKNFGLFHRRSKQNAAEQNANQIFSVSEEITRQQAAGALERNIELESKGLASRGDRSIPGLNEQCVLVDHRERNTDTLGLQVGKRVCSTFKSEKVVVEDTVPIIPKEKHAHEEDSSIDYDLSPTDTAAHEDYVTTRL

[4] = fluconazole-exposed Candida albicans growth modulators – fluorescence, retest, confirmation (AID 2467); assay type: functional, cell-based
[5] = target: T2, High affinity choline transporter 1 (Homo sapiens, UniProt Q9GZV3); assay: human choline transporter blockers, potency – cell-based, 5-point CRC, membrane potential dye, dose response (AID 504840); assay type: functional
T2 sequence (Q9GZV3 whole entry): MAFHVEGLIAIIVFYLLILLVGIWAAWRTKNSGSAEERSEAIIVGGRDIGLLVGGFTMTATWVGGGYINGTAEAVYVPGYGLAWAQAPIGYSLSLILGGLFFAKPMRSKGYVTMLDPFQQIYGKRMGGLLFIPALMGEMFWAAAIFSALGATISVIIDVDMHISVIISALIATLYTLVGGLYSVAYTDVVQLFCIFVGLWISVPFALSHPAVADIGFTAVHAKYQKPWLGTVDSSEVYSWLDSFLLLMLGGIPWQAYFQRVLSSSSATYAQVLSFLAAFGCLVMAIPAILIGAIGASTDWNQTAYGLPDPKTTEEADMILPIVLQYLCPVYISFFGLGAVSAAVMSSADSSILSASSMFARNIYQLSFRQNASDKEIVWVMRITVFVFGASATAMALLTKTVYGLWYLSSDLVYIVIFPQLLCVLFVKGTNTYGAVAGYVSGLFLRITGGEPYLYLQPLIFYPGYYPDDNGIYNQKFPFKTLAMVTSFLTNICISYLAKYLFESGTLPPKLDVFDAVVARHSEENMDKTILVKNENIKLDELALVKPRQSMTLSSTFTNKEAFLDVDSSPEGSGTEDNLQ

[6] = Vero E6 cell cytotoxicity, dose response, cytotoxicity control for non-replicating M. tuberculosis project, secondary assay (AID 492998); assay type: functional, VeroE6; settings: Vero C1008
[7] = general mammalian cell viability loss – inhibitor set, cherry-pick, set 2, cytotoxicity control for miR-122 modulator project, dose response (AID 720697); assay type: functional, cell-based
[8] = general mammalian cell viability loss – activator set, cherry-pick, cytotoxicity control for miR-122 modulator project, dose response (AID 720690); assay type: functional, cell-based;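 further: HEK293T human cells scored for general mammalian cytotoxicity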
[9] = HepG2 cell cytotoxicity, dose response, cytotoxicity control for non-replicating M. tuberculosis project (AID 489018); assay type: functional; settings: Mycobacterium tuberculosis
[10] = THP-1 cell cytotoxicity, dose response, cytotoxicity control for non-replicating M. tuberculosis project (AID 489025); assay type: functional
INS1 = assay: INS-1E survival protection against cytokine death – cell-based, luminescence, retest, dose response (AID 449756); assay type: functional; settings: Rattus norvegicus;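 further: cell death triggered by IL-1 beta plus TNF-alpha plus IFN-gamma mixture; protective hits raise ATP signal compared with cytokine alone wells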
Paired box protein Pax-8 = Paired box protein Pax-8 (Homo sapiens, UniProt Q06710); assay: PAX8 transcriptional activity inhibition in RMG-I – RMG-I cells, luciferase, cherry-pick, dose response (AID 687027); assay type: functional, cell-based;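 further: luciferase reporter driven by Pax8 target thyroperoxidase promoter measured by SteadyGlo luminescence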
[11] = OVCAR-3 cell viability loss – plate reader, dry powder samples, PAX8 inhibitor project, dose response (AID 743044); assay type: functional, cell-based
[12] = OVCAR8 cell viability loss – plate reader, dry powder samples, PAX8 project, dose response (AID 743197); assay type: functional, cell-based; settings: OVCAR-8
[13] = toxicity toward immortalized ovarian surface epithelium – cell-based, plate reader, dry powder samples, cytotoxicity control for PAX8 inhibitor project, dose response (AID 743045); assay type: functional
[14] = IGROV1 cell killing – plate reader, dry powder samples, PAX8 inhibitor project, dose response (AID 743043); assay type: functional, cell-based; settings: IGROV-1
[15] = HeLa cell viability loss – plate reader, dry powder, cytotoxicity control, dose response (AID 651946); assay type: functional, cell-based
[16] = CTGF mRNA reduction in DLD1 cells – cell-based, DLD1 colon cancer, RT-qPCR, cherry-pick, dose response (AID 1053122); assay type: functional; settings: Cancer cell lines
[17] = YAP1 overexpression rescue of CTGF inhibition – DLD1 cells, RT-qPCR, cherry-pick, mechanism study for YAP1 pathway inhibitor project, dose response (AID 1053127); assay type: functional, cell-based; settings: DLD-1
[18] = viability loss in HEK293 kidney cells – cell-based, cherry-picks, set 5, cytotoxicity control, dose response (AID 1053117); assay type: functional

In the case of `COc1cccc(NC(=O)CCSc2ccc3ccccc3n2)c1`, the IC50 (Major prion protein) is reported as 3.97 µM (active) and the IC50 (cells) is reported as > 138 µM (inactive).
In the case of `O=C(NNC(=S)NC(=O)C12CC3CC(CC(C3)C1)C2)c1ccncc1`, the EC50 [1] is reported as 26.4 µM (active), the IC50 [2] is reported as > 122 µM (inactive) and the EC50 [3] is reported as 4.22 µM (active). The EC50 [4] was 3.2 µM (active) and the IC50 [5] was 28.8 µM (active).
With `N#CC1=C(N)Oc2c(ccc3cccnc23)C1c1ccccc1` (configuration not stated) the CC50 [6] was 5.56 µM (active), the AC50 [7] was 2.47 µM (active) and the AC50 [8] was 42.5 µM (active). The CC50 [9] was > 20 µM (active), the CC50 [10] was 4.84 µM (active) and the AC50 (INS1) was 4.54 µM (active).
For `C[C@H](CO)N1C[C@H](C)[C@H](CN(C)Cc2ccc(C(=O)Nc3ccccc3N)cc2)Oc2ccc(N(C)C)cc2C1=O`, the AC50 (Paired box protein Pax-8) was 10.5 µM (active), the AC50 [11] was 43.9 µM (active) and the AC50 [12] was 33.7 µM (active). For the same molecule, the AC50 [13] was 56.3 µM (active) and the AC50 [14] was 23.4 µM (active).
In the case of `COc1ccccc1CSc1nnc(-c2ccccc2)o1`, the AC50 [15] is reported as > 52 µM (inactive).
In the case of `CO[C@@H](CN(C)S(=O)(=O)c1ccc(C)cc1)[C@H](C)CN([C@@H](C)CO)S(=O)(=O)c1cccc(Cl)c1`, the AC50 [16] is reported as 16.4 µM (active) and the AC50 [17] is reported as 17.7 µM (active).
With `C[C@@H]1CN([C@H](C)CO)C(=O)c2cc(NC(=O)C3CCCCC3)ccc2O[C@H]1CN(C)Cc1ccc(-c2ccccc2)cc1` the AC50 [18] was > 52 µM (inactive).
